Species: Rattus norvegicus
Assay: DrugMatrix - Regimen: Daily Repeat
Assay type: toxicity, organism-based, Sprague-Dawley
Parameters: regimen Daily Repeat, gender Male, age 6-8 weeks
Conditions: in vivo, po, route oral GAVAGE, […]; for BASOPHIL / EOSINOPHIL / ERYTHROCYTE COUNT / HEMATOCRIT / HEMOGLOBIN / LEUKOCYTE COUNT / LYMPHOCYTE / MEAN CORPUSCULAR HEMOGLOBIN / MEAN CORPUSCULAR HEMOGLOBIN CONCENTRATION / MEAN CORPUSCULAR VOLUME / MONOCYTE / NEUTROPHIL / PLATELET COUNT / ABSOLUTE BASOPHIL / ABSOLUTE EOSINOPHIL / ABSOLUTE LYMPHOCYTE / ABSOLUTE MONOCYTE / ABSOLUTE SEGMENTED NEUTROPHIL / NUCLEATED RED BLOOD CELLS: tissue Blood; for ALANINE AMINOTRANSFERASE / ALBUMIN / ALKALINE PHOSPHATASE / ASPARTATE AMINOTRANSFERASE / BLOOD UREA NITROGEN / CHLORIDE / CHOLESTEROL / CREATINE PHOSPHOKINASE / CREATININE / GLUCOSE / PHOSPHORUS / POTASSIUM / SODIUM / TOTAL BILIRUBIN / TOTAL PROTEIN / CARBON DIOXIDE / LACTATE DEHYDROGENASE / LIPASE / URIC ACID: tissue Plasma
[1] = 0 mg/kg, 120 h, dose level Control, time 5 day
[2] = 0 mg/kg, dose level Control, time 28 day
[3] = 11 mg/kg, 72 h, dose level High, time 3 day
[4] = 11 mg/kg, 120 h, dose level High, time 5 day

SMILES: O=[N+]([O-])c1cc([As](=O)(O)O)ccc1O [ROXARSONE]
- BASOPHIL [1]: 0.32%
- EOSINOPHIL [1]: 0.58%
- ERYTHROCYTE COUNT [1]: 7.26 x10E6/uL
- HEMATOCRIT [1]: 46.94%
- HEMOGLOBIN [1]: 14.9 G/DL
- LEUKOCYTE COUNT [1]: 8.69 x10E3/uL
- LYMPHOCYTE [1]: 81.52%
- MEAN CORPUSCULAR HEMOGLOBIN [1]: 20.58 pg
- MEAN CORPUSCULAR HEMOGLOBIN CONCENTRATION [1]: 31.8 G/DL
- MEAN CORPUSCULAR VOLUME [1]: 64.68 fL
- MONOCYTE [1]: 2.16%
- NEUTROPHIL [1]: 13.88%
- PLATELET COUNT [1]: 1531.2 x10E3/uL
- ALANINE AMINOTRANSFERASE [1]: 33.2 u/L
- ALBUMIN [1]: 3.74 G/DL
- ALKALINE PHOSPHATASE [1]: 318 u/L
- ASPARTATE AMINOTRANSFERASE [1]: 78.6 u/L
- BLOOD UREA NITROGEN [1]: 6 mg/dL
- CHLORIDE [1]: 108.4 MEQ/L
- CHOLESTEROL [1]: 63 mg/dL
- CREATINE PHOSPHOKINASE [1]: 251 u/L
- CREATININE [1]: 0.18 mg/dL
- GLUCOSE [1]: 125.6 mg/dL
- PHOSPHORUS [1]: 12.06 mg/dL
- POTASSIUM [1]: 5.92 MEQ/L
- SODIUM [1]: 146.8 MEQ/L
- TOTAL BILIRUBIN [1]: 0.16 mg/dL
- TOTAL PROTEIN [1]: 6.06 G/DL
- BASOPHIL [2]: 0.42%
- EOSINOPHIL [2]: 0.58%
- ERYTHROCYTE COUNT [2]: 8.06 x10E6/uL
- HEMATOCRIT [2]: 48.44%
- HEMOGLOBIN [2]: 16.34 G/DL
- LEUKOCYTE COUNT [2]: 13.04 x10E3/uL
- LYMPHOCYTE [2]: 85.12%
- MEAN CORPUSCULAR HEMOGLOBIN [2]: 20.26 pg
- MEAN CORPUSCULAR HEMOGLOBIN CONCENTRATION [2]: 33.74 G/DL
- MEAN CORPUSCULAR VOLUME [2]: 60.1 fL
- MONOCYTE [2]: 1.44%
- NEUTROPHIL [2]: 11.28%
- PLATELET COUNT [2]: 1226 x10E3/uL
- ALANINE AMINOTRANSFERASE [2]: 28.6 u/L
- ALBUMIN [2]: 3.94 G/DL
- ALKALINE PHOSPHATASE [2]: 254.6 u/L
- ASPARTATE AMINOTRANSFERASE [2]: 67.8 u/L
- BLOOD UREA NITROGEN [2]: 10.4 mg/dL
- CHLORIDE [2]: 104.6 MEQ/L
- CHOLESTEROL [2]: 57.6 mg/dL
- CREATINE PHOSPHOKINASE [2]: 224.8 u/L
- CREATININE [2]: 0.4 mg/dL
- GLUCOSE [2]: 140.6 mg/dL
- PHOSPHORUS [2]: 10.66 mg/dL
- POTASSIUM [2]: 6.58 MEQ/L
- SODIUM [2]: 148.6 MEQ/L
- TOTAL BILIRUBIN [2]: 0.24 mg/dL
- TOTAL PROTEIN [2]: 6.64 G/DL
- ABSOLUTE BASOPHIL [3]: 0 CELLS/uL
- ABSOLUTE EOSINOPHIL [3]: 38.67 CELLS/uL
- ABSOLUTE LYMPHOCYTE [3]: 12107.67 CELLS/uL
- ABSOLUTE MONOCYTE [3]: 206 CELLS/uL
- ABSOLUTE SEGMENTED NEUTROPHIL [3]: 1247.67 CELLS/uL
- BASOPHIL [3]: 0%
- EOSINOPHIL [3]: 0.33%
- ERYTHROCYTE COUNT [3]: 6.03 x10E6/uL
- HEMATOCRIT [3]: 38.2%
- HEMOGLOBIN [3]: 14.6 G/DL
- LEUKOCYTE COUNT [3]: 13.6 x10E3/uL
- LYMPHOCYTE [3]: 89%
- MEAN CORPUSCULAR HEMOGLOBIN [3]: 24.2 pg
- MEAN CORPUSCULAR HEMOGLOBIN CONCENTRATION [3]: 38.2 G/DL
- MEAN CORPUSCULAR VOLUME [3]: 63.27 fL
- MONOCYTE [3]: 1.67%
- NEUTROPHIL [3]: 9%
- NUCLEATED RED BLOOD CELLS [3]: 0 /100WBC
- PLATELET COUNT [3]: 1141 x10E3/uL
- ALANINE AMINOTRANSFERASE [3]: 88 u/L
- ALBUMIN [3]: 3.93 G/DL
- ALKALINE PHOSPHATASE [3]: 483.33 u/L
- ASPARTATE AMINOTRANSFERASE [3]: 108 u/L
- BLOOD UREA NITROGEN [3]: 10.67 mg/dL
- CARBON DIOXIDE [3]: 29.33 mmol/L
- CHLORIDE [3]: 100.67 MEQ/L
- CHOLESTEROL [3]: 66.67 mg/dL
- CREATINE PHOSPHOKINASE [3]: 464.67 u/L
- CREATININE [3]: 0.15 mg/dL
- GLUCOSE [3]: 142.67 mg/dL
- LACTATE DEHYDROGENASE [3]: 448 u/L
- LIPASE [3]: 11.67 u/L
- PHOSPHORUS [3]: 11.03 mg/dL
- POTASSIUM [3]: 6.34 MEQ/L
- SODIUM [3]: 143.37 MEQ/L
- TOTAL BILIRUBIN [3]: 0.2 mg/dL
- TOTAL PROTEIN [3]: 5.6 G/DL
- URIC ACID [3]: 1.6 mg/dL
- ABSOLUTE BASOPHIL [4]: 0 CELLS/uL
- ABSOLUTE EOSINOPHIL [4]: 0 CELLS/uL
- ABSOLUTE LYMPHOCYTE [4]: 14104 CELLS/uL
- ABSOLUTE MONOCYTE [4]: 363 CELLS/uL
- ABSOLUTE SEGMENTED NEUTROPHIL [4]: 1099.67 CELLS/uL
- NUCLEATED RED BLOOD CELLS [4]: 0 /100WBC
- CARBON DIOXIDE [4]: 29.67 mmol/L
- LACTATE DEHYDROGENASE [4]: 358.67 u/L
- LIPASE [4]: 11.33 u/L
- URIC ACID [4]: 1.37 mg/dL

From ChEMBL document CHEMBL3885881, “DrugMatrix”
